Columns and labels:
[1] = tested on: Colo205; experiment: MTT cytotoxicity, Colo205; format: cell-based, human; conditions: 48 h incubation, read-out: Cytotoxic effect, IC50
Method: (§1) Cytotoxicity was evaluated against fifteen adherent human cancer cell lines using the MTT test: colorectal adenocarcinoma cells Caco2 (ATCC® HTB-37™), colorectal adenocarcinoma cells HT29 (ATCC® HTB-38™), colon colorectal carcinoma HCT116 (ATCC® CCL-247™), colon adenocarcinoma COLO205 (ATCC® CCL-222™), colorectal adenocarcinoma SW620 (ATCC® CCL-227™), colorectal adenocarcinoma grade IV LoVo (ATCC® CCL-229™), hepatocellular carcinoma Hep 3b (ATCC® HB-8064™), endometrium adenocarcinoma HEC1A (ATCC® HTB-112™), Ishikawa (99040201; Sigma–Aldrich Sigma, St. Louis, MO, USA), cervical adenocarcinoma cells HeLa (ATCC® CCL-2™), lung epithelial carcinoma A549 (ATCC® CRM-CCL-185™), breast epithelial adenocarcinoma cell positive for estrogen and progesterone receptors MCF7 (ATCC® HTB-22™) and negative for expression of estrogen receptor HCC38 (ATCC® CRL-2314™), acute promyelocytic leukemia HL-60 (ATCC® CCL-240™), skin melanoma WM115 (ATCC® CRL-1676™), and 1 suspension cancer cell line: acute lymphoblastic leukemia NALM6 (purchased from the German Collection of Microorganisms and Cell Cultures). HT29, NALM6, HCC-38 and HL-60 cells were cultured in RPMI 1640 medium (Thermo Fisher Scientific, Waltham, MA, USA) supplemented with 10% fetal bovine serum and antibiotic (gentamicin 25 μg ml^−1) (Gibco, Grand Island, New York, NY, USA). For the remaining tumor cell lines, Dulbecco’s minimal essential medium (DMEM, Lonza, Visp, Switzerland) supplemented with 10% fetal bovine serum and antibiotic instead of RPMI 1640 was used. In addition, Human Microvascular Endothelial Cells (HMEC1), which were obtained from the American Type Culture Collection (Manassas, VA, USA), were used as a model of normal cells. HMEC-1 were cultured in MCDB131 medium (Corning Life Sciences, Corning, NY, USA), supplemented with 10% fetal bovine serum, 10 ng/mL Epidermal Growth Factor (Millipore, Burlington, MA, USA) and 10 mM glutamine (Corning Life Sciences). All cells were grown at 37 °C in humidified atmosphere of 5% CO2 in air. The exponential growth of cells was maintained by regular passaging at 90% confluence three times a week using 0.025% trypsin/EDTA (Gibco, Grand Island, New York, NY, USA).
(§2) The cytotoxicity was tested by a standard MTT [3-(4,5-dimethylthiazol-2-yl)-2,5-diphenyltetrazolium bromide] (Sigma, St. Louis, MO, USA) microplate cell viability assay. The anticancer activity of the investigated compounds was evaluated in vitro on the basis of their ability to inhibit the proliferation of various cancer cells. Exponentially growing cells were seeded a day before the experiment into a 96-well microplate (Nunc, Roskilde, Denmark) at a density up to 6–8 × 10^3 cells/mL (depending on the cell line) and exposed to the test compounds at a wide range of concentrations for 48 h. Subsequently, various concentrations of the studied compounds (10^−7–10^−5 M) freshly prepared in DMSO (final concentration of <0.1% DMSO) and diluted with complete culture medium were added. After 48 h incubation, the cells were immediately subjected to a cell viability assay. At this time point, the number of viable cells in each well was estimated by the MTT test. Briefly, 50 µL (5 mg/mL final concentration) of MTT was added to each microplate well. This procedure was then followed by a three- to four-hour incubation at 37 °C. After incubation, MTT solution was replaced with 100 µL DMSO/well, which solubilized the formazan crystals formed by the dehydrogenases of metabolically active cells. Purple formazan absorbance was measured spectrophotometrically at 570 nm.

[2] = tested on: Hep 3b; experiment: MTT cytotoxicity, Hep 3b; format: cell-based, human; conditions: 48 h incubation, read-out: Cytotoxic effect, IC50
Method: as §1, §2

[3] = pH dependent stability of the complexes (UV–Vis); format: physicochemical; conditions: 24 h and 48 h
Method: The stability measurements were performed on a UV 1800 Shimadzu spectrophotometer (Kyoto, Japan) at room temperature. The complexes 2d and 3d were tested for the stabilities in buffer Na2HPO4 (pH 4 and 8). UV–Vis spectra were recorded hourly for 48 h at 22 °C. The spectra were recorded in the range of 200–800 nm over a time course of 0, 24, and 48 h.

[4] = tested on: A549; experiment: MTT cytotoxicity, A549; format: cell-based, human; conditions: 48 h incubation, read-out: Cytotoxic effect, IC50
Method: as §1, §2

[5] = tested on: HCC38; experiment: MTT cytotoxicity, HCC38; format: cell-based, human; conditions: 48 h incubation, read-out: Cytotoxic effect, IC50
Method: as §1, §2

[6] = tested on: PARP1; experiment: Cleaved PARP level (ELISA), WM115 cells; format: cell-based, human; conditions: WM115, 24 h at IC50 concentration
Method: (§3) Cells (1 × 10^6) were seeded in 35 mm dishes and cultured for 24 h in the appropriate medium until they reached log phase growth. […] After incubation, the medium was removed, the cells were washed with PBS solution and trypsinized. The harvested cell pellet was lysed in RIPA buffer (50 mM Tris-HCL, pH 8.0, with 150 mM sodium chloride, 1.0% Igepal CA-630 (NP-40), 0.5% sodium deoxychlorate, and 0.1% sodium dodecyl sulfate) with protease inhibitor (phenylmethylsulfonyl fluoride) (Sigma-Aldrich Sigma, St. Louis, MO, USA). The level of cleaved PARP was estimated using the PARP Cleaved [214/215] ELISA kit (Invitrogen, Waltham, MA, USA) according to the protocol described in the manufacturer’s instructions.

[7] = tested on: HT29; experiment: MTT cytotoxicity, HT29; format: cell-based, human; conditions: 48 h incubation, read-out: Cytotoxic effect, IC50
Method: as §1, §2

[8] = tested on: WM115; experiment: MTT cytotoxicity, WM115; format: cell-based, human; conditions: 48 h incubation, read-out: Cytotoxic effect, IC50
Method: as §1, §2

[9] = tested on: HL60; experiment: MTT cytotoxicity, HL60; format: cell-based, human; conditions: 48 h incubation, read-out: Cytotoxic effect, IC50
Method: as §1, §2

[10] = tested on: LoVo; experiment: MTT cytotoxicity, LoVo; format: cell-based, human; conditions: 48 h incubation, read-out: Cytotoxic effect, IC50
Method: as §1, §2

[11] = tested on: NALM6; experiment: MTT cytotoxicity, NALM6; format: cell-based, human; conditions: 48 h incubation, read-out: Cytotoxic effect, IC50
Method: as §1, §2

[12] = tested on: SW620; experiment: MTT cytotoxicity, SW620; format: cell-based, human; conditions: 48 h incubation, read-out: Cytotoxic effect, IC50
Method: as §1, §2

[13] = tested on: HEC1A; experiment: MTT cytotoxicity, HEC1A; format: cell-based, human; conditions: 48 h incubation, read-out: Cytotoxic effect, IC50
Method: as §1, §2

[14] = tested on: human microvascular endothelial cell line HMEC1; experiment: MTT cytotoxicity, normal endothelial cells HMEC1; format: cell-based; conditions: for IC50: HMEC1 normal endothelial cells, 48 h incubation, read-out: Cytotoxic effect, IC50; for IC50 for HMEC-1 higher than for cancer cells (selectivity): HMEC-1 vs cancer cells
Method: as §1, §2

[15] = tested on: Ishikawa; experiment: MTT cytotoxicity, Ishikawa; format: cell-based, human; conditions: 48 h incubation, read-out: Cytotoxic effect, IC50
Method: as §1, §2

[16] = Lipophilicity by RP-TLC; format: physicochemical; set-up: key: RM = log(1/Rf − 1), Rf = a/b; conditions: eluent AcCN: H2O at 30–70% v/v, 22 °C
Method: All the experimental solutions of standard substances (0.1 mg/mL) were prepared by dissolving ligands (1a–1d) or ruthenium complexes (2a/3a–2d/3d) in ethanol. Commercially-available octadecyl-modified silica aluminum sheets (20 × 20 cm) were cut into 5 × 10 cm plates. The plates were manually spotted with 1.0 μL of freshly prepared solutions using automatic pipets, 5 mm from each edge. The chromatograms for all compounds (1a/2a/3a–1d/2d/3d) were developed using a horizontal developing chamber and the solvent migration distance was about 4.5 cm. The plates were visually inspected under UV light at 254 nm. Each zone was clearly marked and its distance was manually measured. The RP-TLC analyses of lipophilicity were performed at ambient temperature (22 °C). In this experiment, all measurements were performed in triplicate and the obtained results were used in further calculations. The acetonitrile and water mixtures for ligands 1a–1d and arene–ruthenium(II) complexes 2a/3a–2d/3d were used as mobile phases, with […] content increasing in the range of 30–70% v/v, at 5% intervals. Values of the chromatographic retention coefficient Rf (as shown Formula (1)) and RM (as shown Formula (2)), based on received chromatograms, were calculated and converted as follows:(1) Rf=a/b (2) RM=log1/Rf−1

[17] = tested on: Caco2; experiment: MTT cytotoxicity, Caco2; format: cell-based, human; conditions: 48 h incubation, read-out: Cytotoxic effect, IC50
Method: as §1, §2

[18] = tested on: Hela; experiment: MTT cytotoxicity, Hela; format: cell-based, human; conditions: 48 h incubation, read-out: Cytotoxic effect, IC50
Method: as §1, §2

[19] = tested on: MCF7; experiment: MTT cytotoxicity, MCF7; format: cell-based, human; conditions: 48 h incubation, read-out: Cytotoxic effect, IC50
Method: as §1, §2

[20] = tested on: human cancer cell lines; experiment: MTT cytotoxicity, summary statements over the cancer cell line panel; format: cell-based; conditions: read-out: IC50 for seven (2c) and six (3c) cancer cell lines
Method: Cytotoxicity was evaluated against fifteen adherent human cancer cell lines using the MTT test: colorectal adenocarcinoma cells Caco2 (ATCC® HTB-37™), colorectal adenocarcinoma cells HT29 (ATCC® HTB-38™), colon colorectal carcinoma HCT116 (ATCC® CCL-247™), colon adenocarcinoma COLO205 (ATCC® CCL-222™), colorectal adenocarcinoma SW620 (ATCC® CCL-227™), colorectal adenocarcinoma grade IV LoVo (ATCC® CCL-229™), hepatocellular carcinoma Hep 3b (ATCC® HB-8064™), endometrium adenocarcinoma HEC1A (ATCC® HTB-112™), Ishikawa (99040201; Sigma–Aldrich Sigma, St. Louis, MO, USA), cervical adenocarcinoma cells HeLa (ATCC® CCL-2™), lung epithelial carcinoma A549 (ATCC® CRM-CCL-185™), breast epithelial adenocarcinoma cell positive for estrogen and progesterone receptors MCF7 (ATCC® HTB-22™) and negative for expression of estrogen receptor HCC38 (ATCC® CRL-2314™), acute promyelocytic leukemia HL-60 (ATCC® CCL-240™), skin melanoma WM115 (ATCC® CRL-1676™), and 1 suspension cancer cell line: acute lymphoblastic leukemia NALM6 (purchased from the German Collection of Microorganisms and Cell Cultures). […]
The cytotoxicity was tested by a standard MTT [3-(4,5-dimethylthiazol-2-yl)-2,5-diphenyltetrazolium bromide] […] The anticancer activity of the investigated compounds was evaluated in vitro on the basis of their ability to inhibit the proliferation of various cancer cells. […]

[21] = tested on: PARP1; experiment: Cleaved PARP level (ELISA), COLO205 cells; format: cell-based, human; conditions: COLO205, 24 h at IC50 concentration
Method: as §3

[22] = tested on: Colo205; experiment: RNS generation, DAF-FM probe, COLO205; format: cell-based, human; conditions: COLO205, 24 h at IC50 concentration
[23] = tested on: HEC1A; experiment: Mitochondrial potential, JC-1 probe, HEC1A; format: cell-based, human; conditions: IC50 concentration
Method: Cells (10 × 10^3/well) were seeded in black 96-well plates and grown for 24 h to reach the log phase. […] After removing the medium, the cell monolayer was washed twice with PBS solution and 50 μL of the JC-1 probe at a final concentration of 5 μM was added to the wells of the plate. The cells were incubated with the dye for 30 min in a CO2 incubator. Subsequently, the changes in the fluorescence of monomers (λex = 485 nm and λem = 525 nm) and aggregates (λex = 530 nm and λem = 590 nm) using JC-1 were monitored. The results of the tested trials were presented as the ratio of fluorescence of aggregates and JC1 monomers as a percentage of control values, which was assumed to be 100%.

Structure (SMILES) | IC50 [1] | IC50 [2] | IC50 [4] | IC50 [5] | IC50 [7] | IC50 [8] | IC50 [9] | IC50 [10] | IC50 [11] | IC50 [12] | IC50 [13] | IC50 [14] | IC50 for HMEC-1 higher than for cancer cells (selectivity) [14] | IC50 [15] | Lipophilicity, RM [16] | IC50 [17] | IC50 [18] | IC50 [19] | IC50 [20] | further results
Cc1cc(O)n(C(N)=S)n1.Cc1ccc(C(C)C)cc1.[Cl-].[Cl][Ru+] [2d] | > 200 µM | > 200 µM | > 200 µM | > 200 µM | 168 ± 7.5 µM | 8 ± 0.9 µM | > 200 µM | > 200 µM | > 200 µM | > 200 µM | 67.8 ± 6.1 µM | 163 ± 5.9 µM | 3–5 times | 100 ± 6.7 µM | 1.64 | > 200 µM | 111 ± 1.7 µM | > 200 µM | – | Stability, UV–Vis absorption maxima ([3]; pH 4 buffer): did not change; Stability, UV–Vis absorption maxima ([3]; pH 8 buffer): loss absorption; increase in level of PARP1 degradation compared to controls [6]: approximately 115%
Cc1ccc(C(C)C)cc1.F[P-](F)(F)(F)(F)F.NC(=S)n1nc(-c2ccccc2)cc1O.[Cl-].[Ru+2] [3c] | 26.7 ± 2.1 µM | 52.1 ± 3.4 µM | 191 ± 4.3 µM | 131 ± 2.2 µM | 128 ± 4.2 µM | 18.7 ± 1.7 µM | 70.4 ± 6 µM | 32.4 ± 1.8 µM | 19.8 ± 1.8 µM | 90.1 ± 1.7 µM | 39.9 ± 4.1 µM | 164 ± 3.1 µM | 3–5 times | 124.3 ± 0.9 µM | 2.61 | 172 ± 8.2 µM | 78.8 ± 1.1 µM | 30.4 ± 2.1 µM | < 50 µM | increase in level of PARP1 degradation vs. control [21]: approximately 85%; increase in nitrogen peroxide (RNS, DAF-FM probe) vs. control [22]: ~25%
Cc1ccc(C(C)C)cc1.NC(=S)n1nc(-c2ccccc2)cc1O.[Cl-].[Cl][Ru+] [2c] | 32.6 ± 3.3 µM | 104 ± 4.4 µM | > 200 µM | > 200 µM | 29.5 ± 2.1 µM | 26.7 ± 3.3 µM | 86.5 ± 8 µM | 42.6 ± 3.2 µM | 11.7 ± 1.6 µM | 49.4 ± 1.2 µM | 24.5 ± 0.9 µM | 192 ± 6.5 µM | 3–5 times | 142 ± 7.4 µM | 2.27 | > 200 µM | 124 ± 7.2 µM | 83.4 ± 7.3 µM | < 50 µM | decrease in mitochondrial potential (JC-1) [23]: ~50%

Source: article PMC10180065, “Mechanistic Studies of Arene–Ruthenium(II) Complexes with Carbothioamidopyrazoles as Alternative Cancer Drugs” (Molecules, 2023)
